Measured values: patent publication US20240390512A1, “METHODS OF TREATING CHEMOTHERAPY-RESISTANT CANCER WITH AN ANTIBODY-DRUG CONJUGATE” (DAIICHI SANKYO COMPANY, LIMITED, priority 2021, published 2024)
Where two headings read alike, the source gives them in different places.

How the values were obtained:
[1] = tested on: Human ovarian cancer cell line OV-90; experiment: Antitumor study (2), combination with carboplatin, OV-90 xenograft; settings: Day 21; ADC (1) 1 mg/kg iv Day 0, carboplatin 50 mg/kg iv Day 0
Text: Human ovarian cancer cell line OV-90, which was purchased from ATCC, was suspended into Matrigel (Corning Inc.), subcutaneously transplanted at 2.5×10^6 cells into the right side of female nude mice, and the mice were randomly grouped 14 days after the transplantation (Day 0). […] Single administration groups of each drug, a combined administration group, and a solvent administration group as a control group were set up.

[2] = tested on: Human ovarian cancer cell line NIH:OVCAR-3; experiment: Antitumor study (1), combination with carboplatin, NIH:OVCAR-3 xenograft; settings: Day 21; ADC (1) 0.3 mg/kg iv Day 0, carboplatin 50 mg/kg iv Day 0
Experimental: Human ovarian cancer cell line NIH:OVCAR-3, which was purchased from ATCC, was suspended into Matrigel (Corning Inc.), subcutaneously transplanted at 1.0×10^7 cells into the right side of female nude mice, and the mice were randomly grouped 24 days after the transplantation (Day 0). The antibody-drug conjugate (1) (formula 4) (DAR: 7.9) was intravenously administered to the tail vein at a dose of 0.3 mg/kg on Day 0. […] Single administration groups of each drug, a combined administration group, and a solvent administration group as a control group were set up.

[3] = tested on: Human ovarian cancer cell line OV-90; experiment: Antitumor study (4), combination with gemcitabine, OV-90 xenograft; type: in vivo, mouse; settings: Day 21; ADC (1) 3 mg/kg iv Day 0, gemcitabine 15 mg/kg iv Day 0, 7, 14
Experimental: (§1) Measurement and calculation formula: In the study, the major axis and minor axis of tumors were measured up to 3 times a week with an electronic digital caliper (CD15-CX, Mitutoyo Corp.), and the tumor volume (mm^3) was calculated. The calculation formula is as shown below.

[4] = tested on: Human ovarian cancer cell line NIH:OVCAR-3; experiment: In vivo antitumor effect after long-term treatment of carboplatin and paclitaxel, NIH:OVCAR-3 xenograft; design: species or system mouse; settings: carboplatin 50 mg/kg and paclitaxel 30 mg/kg iv
Experimental: as §1, with “below. Tumor volume (mm^3)=½×Major axis (mm)×[Minor axis (mm)]^2.” for “below.”
Carboplatin was diluted with physiological saline, and intravenously administered to the tail vein in a fluid volume of 10 mL/kg. Paclitaxel was dissolved with cremophor and ethanol (1:1), diluted with physiological saline, and then intravenously administered to the tail vein in a fluid volume of 10 mL/kg. The antibody-drug conjugate (formula 4) was diluted with ABS buffer (10 mM acetate buffer [pH 5.5], 5% sorbitol), and intravenously administered to the tail vein in a fluid volume of 10 mL/kg.
For clarity, the antibody comprised in the antibody-drug conjugate (1) administered is referred as “H01L02” in the present invention.

[5] = tested on: Human ovarian cancer cell line OV-90; type: in vivo, mouse; settings: Day 15; ADC (1) 10 mg/kg iv Day 0, carboplatin 50 mg/kg iv Day 0, paclitaxel 20 mg/kg iv Day 1
Experimental: Measurement and calculation formula: In the study, the major axis and minor axis of tumors were measured twice a week with an electronic digital caliper (CD15-CX, Mitutoyo Corp.), and the tumor volume (mm^3) was calculated. The calculation formula is as shown below.

With `N.N.O=C([O-])C1(C(=O)[O-])CCC1.[Pt+2]` [carboplatin] the TGI [1] was 23% and the “tumor growth inhibition (TGI)” value [2] was 47%.

For `Nc1ccn([C@@H]2O[C@H](CO)[C@@H](O)C2(F)F)c(=O)n1` [gemcitabine], the TGI [3] was 23%.

carboplatin and paclitaxel was tested, and the “tumor response to the first dosing” value ([4]; 12 mice) was “the tumor regressed in all cases”, the “time to tumor regrowth after the first dosing” value ([4]; regrowth in all most cases) was ≤ 6 weeks and the TGI [5] was 65%.
